# Source: ChEMBL document CHEMBL3217627, “Designing glucokinase activators with reduced hypoglycemia risk: discovery of N,N-dimethyl-5-(2-methyl-6-((5-methylpyrazin-2-yl)-carbamoyl)benzofuran-4-yloxy)pyrimidine-2-carboxamide as a clinical candidate for the treatment of type 2 diabetes mellitus” (Medchemcomm, 2011)
# Calls of active or inactive are those of the source. The calls are words filed in the database; no cut-off is given here.
# Key:
# Hexokinase-4 [1] = target: T1, Hexokinase-4 (Rattus norvegicus, UniProt P17712); test: Activation of rat glucokinase
# T1 sequence (P17712 whole entry): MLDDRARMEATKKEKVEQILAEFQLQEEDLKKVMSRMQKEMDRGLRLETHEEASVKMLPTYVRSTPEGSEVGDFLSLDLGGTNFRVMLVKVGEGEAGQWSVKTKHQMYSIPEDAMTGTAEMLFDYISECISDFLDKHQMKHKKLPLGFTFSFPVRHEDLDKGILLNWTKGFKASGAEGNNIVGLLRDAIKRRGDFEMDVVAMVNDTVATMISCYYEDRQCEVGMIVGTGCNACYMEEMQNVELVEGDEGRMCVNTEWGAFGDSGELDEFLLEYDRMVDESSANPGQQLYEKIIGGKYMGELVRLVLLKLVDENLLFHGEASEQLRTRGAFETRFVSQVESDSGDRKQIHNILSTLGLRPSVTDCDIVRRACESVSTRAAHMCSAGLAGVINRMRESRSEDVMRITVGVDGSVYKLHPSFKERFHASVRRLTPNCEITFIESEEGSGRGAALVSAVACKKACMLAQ
# Rattus norvegicus = test: Antidiabetic activity in Sprague-Dawley rat assessed as reduction of post-prandial glucose excursion at 3 to 100 mg/kg, po administered for 60 mins followed by glucose challenge measured up to 120 mins by OGTT; type: functional, organism-based
# [2] = Passive permeability across RRCK cells; type: ADME, cell-based, Canis lupus familiaris, MDCKII-LE; conditions: dog, MDCK; read-out: permeability
# [3] = Kinetic solubility of the compound; type: physicochemical; conditions: read-out: Kinetic_solubility
# hERG (KCNH2) = hERG (KCNH2) (Homo sapiens, UniProt Q12809); test: Inhibition of dofetilide binding to human ERG at 10 uM relative to control; conditions: probe dofetilide
# [4] = Intrinsic clearance in human liver microsomes; type: ADME; conditions: read-out: CLH
# Hexokinase-4 [5] = target: T2, Hexokinase-4 (Homo sapiens, UniProt P35557)
# T2 sequence (P35557 whole entry): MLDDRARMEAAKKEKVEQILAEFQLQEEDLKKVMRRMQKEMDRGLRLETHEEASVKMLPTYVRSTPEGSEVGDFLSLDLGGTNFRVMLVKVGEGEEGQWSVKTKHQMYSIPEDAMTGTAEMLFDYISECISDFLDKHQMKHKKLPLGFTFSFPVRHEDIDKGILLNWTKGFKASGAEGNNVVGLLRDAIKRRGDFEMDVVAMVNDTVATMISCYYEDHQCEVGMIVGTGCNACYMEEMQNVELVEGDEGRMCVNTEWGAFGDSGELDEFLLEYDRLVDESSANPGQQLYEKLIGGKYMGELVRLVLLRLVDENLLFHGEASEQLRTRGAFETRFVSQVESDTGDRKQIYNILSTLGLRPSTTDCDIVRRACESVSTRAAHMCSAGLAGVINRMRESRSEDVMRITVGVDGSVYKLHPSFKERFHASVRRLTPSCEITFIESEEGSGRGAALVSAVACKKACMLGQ
# Description: Activation of recombinant human glucokinase assessed as formation of glucose-6-phosphate by G6PDH/NADP coupled assay
# [6] = target: Voltage-gated inwardly rectifying potassium channel KCNH2 (Homo sapiens, UniProt Q12809); test: Inhibition of dofetilide binding to human ERG
# [7] = Selectivity ratio of EC50 for rat glucokinase to EC50 for human glucokinase
# Sequence of hERG (KCNH2) (Q12809 whole entry): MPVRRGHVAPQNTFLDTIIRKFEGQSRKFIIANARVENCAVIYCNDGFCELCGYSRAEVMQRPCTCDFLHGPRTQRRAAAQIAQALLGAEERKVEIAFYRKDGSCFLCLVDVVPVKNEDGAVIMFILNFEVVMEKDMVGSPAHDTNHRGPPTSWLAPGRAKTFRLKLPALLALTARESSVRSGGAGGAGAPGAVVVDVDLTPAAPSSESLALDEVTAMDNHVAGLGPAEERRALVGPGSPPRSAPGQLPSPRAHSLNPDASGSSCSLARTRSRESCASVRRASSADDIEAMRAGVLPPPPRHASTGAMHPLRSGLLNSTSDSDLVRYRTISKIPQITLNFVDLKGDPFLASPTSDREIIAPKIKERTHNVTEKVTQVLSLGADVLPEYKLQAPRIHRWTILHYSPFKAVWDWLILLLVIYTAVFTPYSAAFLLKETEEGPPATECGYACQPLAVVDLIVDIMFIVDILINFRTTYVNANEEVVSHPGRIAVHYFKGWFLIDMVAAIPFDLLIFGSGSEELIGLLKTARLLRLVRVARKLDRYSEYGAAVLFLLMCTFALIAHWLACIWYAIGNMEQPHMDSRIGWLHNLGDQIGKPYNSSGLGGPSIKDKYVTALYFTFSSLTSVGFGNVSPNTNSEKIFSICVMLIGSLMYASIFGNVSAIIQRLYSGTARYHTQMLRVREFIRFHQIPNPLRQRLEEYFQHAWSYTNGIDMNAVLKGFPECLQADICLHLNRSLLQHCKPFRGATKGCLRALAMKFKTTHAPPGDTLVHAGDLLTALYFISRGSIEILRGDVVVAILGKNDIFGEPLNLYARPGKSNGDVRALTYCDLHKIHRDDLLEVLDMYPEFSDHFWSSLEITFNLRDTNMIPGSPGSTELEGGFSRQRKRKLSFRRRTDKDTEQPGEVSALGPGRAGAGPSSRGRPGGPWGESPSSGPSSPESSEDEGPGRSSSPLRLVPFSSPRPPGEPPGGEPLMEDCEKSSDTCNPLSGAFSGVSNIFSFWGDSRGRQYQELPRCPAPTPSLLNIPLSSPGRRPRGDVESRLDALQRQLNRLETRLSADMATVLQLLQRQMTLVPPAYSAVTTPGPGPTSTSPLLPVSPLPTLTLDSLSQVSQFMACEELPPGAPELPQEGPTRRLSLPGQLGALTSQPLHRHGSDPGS
# Sequence of Voltage-gated inwardly rectifying potassium channel KCNH2 (Q12809 whole entry): as above
SMILES,EC50 (Hexokinase-4 [1]) [nM],Activity (Rattus norvegicus),Papp [2] [×10⁻⁶ cm/s],solubility kinetic [3] [µM],inhibition at 10 µM (hERG (KCNH2)) [%],CLint scaled [4] [mL/min/kg],EC50 (Hexokinase-4 [5]) [nM],IC50 [6] [nM],Ratio EC50 [7]
CS(=O)(=O)c1ccc([C@@H](C[C@H]2CCC(=O)C2)C(=O)Nc2cnccn2)cc1Cl [PIRAGLIATIN],100,Active,,,,,,,
COC1CN(C(=O)c2cnc(Oc3cc(C(=O)Nc4cnccn4)cc4oc(C)cc34)cn2)C1,,,21.8,158,38,< 9.2,> 5000,,
Cc1cc2c(Oc3cnc(C(=O)N4CC(C)(C)C4)cn3)cc(C(=O)Nc3cnccn3)cc2o1,,,7.7,78,,21.2,705,,
Cc1cnc(NC(=O)c2cc(Oc3cnc(C(=O)N4CCCCC4)cn3)c3cc(C)oc3c2)cn1,,,13.3,24,5,18.2,261,,
Cc1csc(NC(=O)c2cc(Sc3nccn3C)c(F)cc2N)n1,,,,,,,66,,
Cc1cnc(NC(=O)c2cc(Oc3ccc(S(C)(=O)=O)cc3)c3cc(C)oc3c2)cn1,,,7.6,3,,13,870,22000,
Cc1cnc(NC(=O)c2cc(Oc3ccc(C(=O)N(C)C)nc3)c3cc(C)oc3c2)cn1,,,28.5,418,5,11.6,480,,
Cc1ccc(Oc2cc(C(=O)Nc3cnc(C)cn3)cc3oc(C)cc23)cc1,,,0.3,18,,47,6610,,
Cc1cc2c(Oc3cnc(C(=O)N(C)C)cn3)cc(C(=O)Nc3cnccn3)cc2o1,,,30,30,60,15,391,,
CCc1cnc(NC(=O)c2cc(Oc3cnc(C(=O)N(C)C)cn3)c3cc(C)oc3c2)cn1,,,23.7,117,,12.2,254,,
Cc1cnc(NC(=O)c2cc(Oc3cnc(C(=O)N4CCC4)cn3)c3cc(C)oc3c2)cn1,,,17.4,10,4,< 9.3,85,,
Cc1cnc(NC(=O)c2cc(Oc3ccc(C#N)cc3)c3cc(C)oc3c2)cn1,,,1.5,2,,29,3060,4000,
CS(=O)(=O)c1ccc([C@@H](CC2CCCC2)C(=O)Nc2nccs2)cc1 [Ro-281675],235,,,,,,,,
COCc1ccc(Oc2cc3[nH]c(-c4ccccn4)nc3cc2[C@H]2CCCN2C(C)=O)cn1,187,,,,,,88,,< 4
CCN(C)C(=O)c1cnc(Oc2cc(C(=O)Nc3cnc(C)cn3)cc3oc(C)cc23)cn1,,,24.1,344,6,< 8,153,,
Cc1cc2c(Oc3cnc(C(=O)N(C)C)cn3)cc(C(=O)Nc3ncccn3)cc2o1,,,,,4,,> 100000,,
COc1cnc(NC(=O)c2cc(Oc3cnc(C(=O)N(C)C)cn3)c3cc(C)oc3c2)cn1,,,15.8,25,6,< 8,127,,
Cc1cc2c(Oc3cnc(C(=O)N4CC5(COC5)C4)cn3)cc(C(=O)Nc3cnccn3)cc2o1,,,19.9,43,,12.9,2170,,
Cc1cc2c(Oc3cnc(C(=O)N4CC(C)(O)C4)cn3)cc(C(=O)Nc3cnccn3)cc2o1,,,9,137,10,< 8,> 5000,,
Cc1cc2c(Oc3cnc(C(=O)N(C)C)cn3)cc(C(=O)Nc3ccn(C)n3)cc2o1,,,15.4,540,8,< 8.2,331,,
Cc1cnc(NC(=O)c2cc(Oc3cnc(C(=O)N4CCCC4)cn3)c3cc(C)oc3c2)cn1,,,15.8,4.5,6,< 8.1,64,,
Cc1cc2c(Oc3cnc(C(=O)N(C)C)cn3)cc(C(=O)Nc3cnc(C(F)(F)F)cn3)cc2o1,,,9.7,6,18,16.1,167,,
CNC(=O)c1cnc(Oc2cc(C(=O)Nc3cnc(C)cn3)cc3oc(C)cc23)cn1,,,20.9,,0,10.1,> 5000,,
COc1ccc2nc(NC(=O)[C@H](CC3CCCC3)c3ccc(S(=O)(=O)N4CCN(C)CC4)cc3)sc2n1,390,,,,,,122,,< 4
Cc1cc2c(Oc3cnc(C(=O)N4CC(C)C4)cn3)cc(C(=O)Nc3cnccn3)cc2o1,,,14.9,49,11,< 9.6,393,,
Cc1cnc(NC(=O)c2cc(Oc3ccc(C(=O)N(C)C)cc3)c3cc(C)oc3c2)cn1,,,5.9,,,17,92,,
Cc1cnc(NC(=O)c2cc(Oc3ncc(C(=O)N(C)C)cn3)c3cc(C)oc3c2)cn1,,,34.7,485,0,< 8,> 20,,
Cc1ccc(NC(=O)c2cc(Oc3cnc(C(=O)N(C)C)cn3)c3cc(C)oc3c2)nc1,,,21.5,215,2,< 10.6,477,,
Cc1cnc(NC(=O)c2cc(Oc3cnc(C(=O)N(C)C)cn3)c3cc(C)oc3c2)cn1,,,,176,,< 8.5,,,
